From publication PMC8243516, “Inhibition of lysosomal phospholipase A2 predicts drug-induced phospholipidosis” (Journal of Lipid Research, 2021)
Read-outs that look alike come from different tables or passages of the source.

What was measured:
LPLA2 = target: T1, LPLA2 (Mus musculus, UniProt Q8VEB4); experiment: LPLA2 thermal stability measurement (SYPRO Orange Tm); assay type: binding
T1 construct: purchased Proteos Inc. (Kalamazoo, MI)
T1 sequence (Q8VEB4 34-412): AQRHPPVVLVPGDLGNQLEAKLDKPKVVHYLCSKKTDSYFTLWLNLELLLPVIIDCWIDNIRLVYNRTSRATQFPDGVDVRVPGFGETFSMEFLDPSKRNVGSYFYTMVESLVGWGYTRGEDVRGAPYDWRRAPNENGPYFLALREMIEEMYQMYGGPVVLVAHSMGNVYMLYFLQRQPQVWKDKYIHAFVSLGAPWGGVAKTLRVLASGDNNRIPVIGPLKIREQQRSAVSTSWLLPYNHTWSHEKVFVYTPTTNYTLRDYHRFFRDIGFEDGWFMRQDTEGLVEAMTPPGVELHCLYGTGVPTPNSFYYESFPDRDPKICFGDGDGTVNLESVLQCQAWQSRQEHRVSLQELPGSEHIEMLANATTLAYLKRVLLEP

[1] = target: T2, recombinant mouse LPLA2 (PLA2G15) (Mus musculus, UniProt Q8VEB4); experiment: Transacylase activity of LPLA2 (1-O-acyl-N-acetylsphingosine synthase, cell-free liposome assay); assay type: biochemical
T2 construct: purchased Proteos Inc. (Kalamazoo, MI)
T2 sequence (Q8VEB4 34-412): T1 sequence (Q8VEB4 34-412)

[2] = cited from earlier work
[3] = LPLA2 dependent 1-O-acyl N-acetylsphingosine synthase activity, read-out: LPLA2 IC50
[4] = ref Pubchem and chEMBL database
[5] = 1-O-acyl N-acetylsphingosine synthase activity, pH 4.5, DOPC/sulfatide liposomes, read-out: LPLA2 IC50
[6] = ref Pubchem and chEMBL databases

Compound | (ΔTm)c-(ΔTm)d, difference in melting temperature of LPLA2 alone or in the presence of drug (LPLA2; N=3 ± SD) | pKa (basic) [2, 6] | also measured
OC[C@H]1OC(O)[C@H](O)[C@@H](O)[C@@H]1O (mixture of isomers) [D-( ± )-glucose] | 0 °C |  | 
Cl.NCCc1ccc(O)c(O)c1 [3-Hydroxy-tyramine hydrochloride] |  |  | IC50 [1, 3]: 56.1 µM; pKa (basic) [2, 4]: 9.27
NCCc1cc(O)c(O)cc1O [6-Hydroxy-dopamine] |  |  | IC50 [1, 3]: 88 µM; pKa (basic) [2, 4]: 9.85
Nc1c(Br)cc(Br)cc1CN[C@H]1CC[C@H](O)CC1 [Ambroxol, 2-amino-3,5-dibromo-N-(trans-4-hydroxycyclohexyl) benzylamine] | 0.68 ± 0.5 °C | 9.01 | IC50 [1, 5]: 59 µM
CC(C)(C#N)c1cc(Cn2cncn2)cc(C(C)(C)C#N)c1 [Anastrozole, 2;2″-[5-(1H-1;2;4-Triazol-1-ylmethyl)-1,3-phenylene]bis(2-methyl-propiononitrile)] | -1.05 ± 0.1 °C | 2 | IC50 [1, 5]: 4.82 µM
CN1[C@@H]2CC[C@H]1C[C@@H](OC(=O)C(CO)c1ccccc1)C2 (some centres unmarked) [Atropine] |  |  | IC50 ([1]; LPLA2 IC50): 1870 µM
CC(Cc1cccc(C(F)(F)F)c1)NCCOC(=O)c1ccccc1 (centres unmarked) [Benfluorex, N-(1-methyl-2-(3-[trifluoromethyl]-phenyl)ethyl)amino ethanol benzoate ester] |  | 9.14 | IC50 [1, 5]: 19.9 µM
CN1[C@@H]2CC[C@H]1C[C@@H](OC(c1ccccc1)c1ccccc1)C2 [Benztropine] |  |  | pKa (basic) [2, 4]: 9.54
CC(C)(C)c1ccc(CN2CCN(C(c3ccccc3)c3ccc(Cl)cc3)CC2)cc1 (centres unmarked) [Buclizine, 1-((4-chlorophenyl)phenylmethyl)-4-((4-(1,1-dimethylethyl)phenyl)methyl)piperazine] | 0.63 ± 0.1 °C | 8.04 | IC50 [1, 5]: 9.13 µM
C(=Cc1ccccc1)CN1CCN(C(c2ccccc2)c2ccccc2)CC1 [Cinnarizine, 1-(diphenylmethyl)-4-(3-phenylprop-2-en-1-yl) piperazine] |  | 8.44 | 
CCN(CC)CCOc1ccc(C(=C(Cl)c2ccccc2)c2ccccc2)cc1 [Clomifene] |  |  | pKa (basic) [2, 4]: 9.31
O=C(O)Cc1ccccc1Nc1c(Cl)cccc1Cl [Diclofenac] | 1.70 ± 0.5 °C |  | IC50 [1, 3]: 7.2 µM
CC(C)N(CCC(C(N)=O)(c1ccccc1)c1ccccn1)C(C)C (centres unmarked) [Disopyramide] |  |  | (ΔTm)c-(ΔTm)d, difference in melting temperature of LPLA2 alone or in the presence of drug (LPLA2): 0 °C
CC[C@H]1OC(=O)[C@H](C)[C@@H](O[C@H]2C[C@@](C)(OC)[C@@H](O)[C@H](C)O2)[C@H](C)[C@@H](O[C@@H]2O[C@H](C)C[C@H](N(C)C)[C@H]2O)[C@](C)(O)C[C@@H](C)C(=O)[C@H](C)[C@@H](O)[C@]1(C)O [Erythromycin, (3R,4S,5S,6R,7R,9R,11R,12R,13S,14R)-6-{[(2S,3R,4S,6R)-4-(dimethylamino)-3-hydroxy-6-methyloxan-2-yl]oxy}-14-ethyl-7,12,13-trihydroxy-4-{[(2R,4R,5S,6S)-5-hydroxy-4-methoxy-4,6-dimethyloxan-2-yl]oxy}-3,5,7,9,11,13-hexamethyl-1-oxacyclotetradecane-2,10-dione] | -0.48 ± 0.4 °C | 8.38 | IC50 [1, 5]: 117 µM
CC(C)OC(=O)C(C)(C)Oc1ccc(C(=O)c2ccc(Cl)cc2)cc1 [Fenofibrate, 2-[4-(4-chlorobenzoyl)phenoxy]-2-methylpropanoic acid isopropyl ester] | 0.44 ± 0.7 °C | -4.9 | IC50 [1, 5]: 2.25 µM
Fc1ccc(C(c2ccc(F)cc2)N2CCN(C/C=C/c3ccccc3)CC2)cc1 [Flunarizine, 1-[bis(4-fluorophenyl)methyl]-4-[(2E)-3-phenylprop-2-en-1-yl]piperazine] |  | 7.6 | 
NCC1(CC(=O)O)CCCCC1 [Gabapentin] |  |  | IC50 [1, 3]: 37.4 µM; pKa (basic) [2, 4]: 9.91
COc1ccc2c(c1)[nH]c1c(C)nccc12 [Harmine] | -1.94 ± 0.9 °C |  | IC50 ([1]; LPLA2 IC50, LPLA2 dependent 1-O-acyl N-acetylsphingosine synthase activity): 633 µM

Compound | (ΔTm)c-(ΔTm)d, difference in melting temperature of LPLA2 alone or in the presence of drug (LPLA2; N=3 ± SD) | pKa (basic) [2, 6] | also measured
C[C@]12CCC(=O)C=C1CC[C@@H]1[C@@H]2[C@@H](O)C[C@@]2(C)[C@H]1CC[C@]2(O)C(=O)CO [Hydrocortisone] | 1.11 ± 0.1 °C |  | IC50 [1, 3]: 402 µM; pKa (basic) [2, 4]: -2.8
CN(C)C(=O)C(CCN1CCC(O)(c2ccc(Cl)cc2)CC1)(c1ccccc1)c1ccccc1 [Loperamide, 4-[4-(4-chlorophenyl)-4-hydroxypiperidin-1-yl]-N,N-dimethyl-2,2-diphenylbutanamide] |  | 9.41 | 
Cc1ccccc1C(OCCN(C)C)c1ccccc1 (centres unmarked) [Orphenadrine] |  |  | pKa (basic) [2, 4]: 8.87
CN1CCN(CCCN2c3ccccc3Sc3ccc(Cl)cc32)CC1 [Prochlorperazine] |  |  | pKa (basic) [2, 4]: 8.39
OC(CCN1CCCC1)(c1ccccc1)C1CCCCC1 (centres unmarked) [Procyclidine] | 0.51 ± 0.0 °C |  | pKa (basic) [2, 4]: 13.84
CCN(CC)C(C)CN1c2ccccc2Sc2ccccc21 (centres unmarked) [Profenamine, diethyl[1-(10H-phenothiazin-10-yl)propan-2-yl]amine] |  | 9.6 | IC50 [1, 5]: 8.7 µM
CCCNCC(O)COc1ccccc1C(=O)CCc1ccccc1 (centres unmarked) [Propafenone, 1-{2-[2-hydroxy-3-(propylamino)propoxy]phenyl}-3-phenylpropan-1-one] |  |  | IC50 [1, 5]: 48.2 µM
CSC(=N)N [S-methylisothiourea] | -2.05 ± 0.6 °C |  | 
Cc1ccc(C(=O)Nc2ccc(S(=O)(=O)O)c3cc(S(=O)(=O)O)cc(S(=O)(=O)O)c23)cc1NC(=O)c1cccc(NC(=O)Nc2cccc(C(=O)Nc3cc(C(=O)Nc4ccc(S(=O)(=O)O)c5cc(S(=O)(=O)O)cc(S(=O)(=O)O)c45)ccc3C)c2)c1 [Suramin, 8-{4-methyl-3-[3-({[3-({2-methyl-5-[(4,6,8-trisulfonaphthalen-1yl)carbamoyl]phenyl}carbamoyl)phenyl]carbamoyl}amino)benzamido]benzamido}naphthalene-1,3,5-trisulfonic acid] | 0 °C |  | IC50 [1, 5]: 35.5 µM
CSc1ccc2c(c1)N(CCC1CCCCN1C)c1ccccc1S2 (centres unmarked) [Thioridazine, 10-[2-(1-methylpiperidin-2-yl)ethyl]-2-(methylsulfanyl) -10H-phenothiazine] |  | 8.93 | 
O=c1ccn([C@@H]2O[C@H](CO)[C@@H](O)[C@H]2O)c(=O)[nH]1 [Uridine] |  |  | pKa (basic) [2, 4]: -3
CC[C@]1(O)C[C@@H]2CN(CCc3c([nH]c4ccccc34)[C@@](C(=O)OC)(c3cc4c(cc3OC)N(C)[C@H]3[C@@](O)(C(=O)OC)[C@H](OC(C)=O)[C@]5(CC)C=CCN6CC[C@]43[C@@H]65)C2)C1 [Vinblastine, methyl (1R,9R,10S,11R,12R,19R)-11-(acetyloxy)-12-ethyl-4-[(13S,15R,17S)-17-ethyl-17-hydroxy-13-(methoxycarbonyl)-1,11-diazatetracyclo [13.3.1.0ˆ[1].0ˆ[1]]nonadeca-4(12),5(10),6,8-tetraen-13-yl]-10-hydroxy-5-methoxy-8-methyl-8,16-diazapentacyclo [10.6.1.0ˆ[1].0ˆ[1] .0ˆ[3]] nonadeca-2,4,6,13-tetraene-10-carboxylate] | -0.24 ± 0.0 °C |  | IC50 [1, 5]: 2120 µM; LPLA2 inhibition (in words) ([1]; acyl transferase activity): millimolar concentrations
O=C1C(O)=C([C@H]2CC[C@H](c3ccc(Cl)cc3)CC2)C(=O)c2ccccc21 [atovaquone] | -0.17 ± 0.1 °C |  | 
CC(C)COCC(CN(Cc1ccccc1)c1ccccc1)N1CCCC1 (centres unmarked) [bepridil] | 2.10 ± 0.6 °C |  | 
CC(C)C[C@H](N)C(=O)O [l-leucine] | 1.86 ± 0.6 °C |  | 
CN1CCc2c(c3ccccc3n2Cc2ccccc2)C1 [mebhydroline] | 0.84 ± 0.1 °C |  | 
CCN(CC)CCc1nc(-c2ccccc2)no1 [oxolamine] | -0.89 ± 0.0 °C |  | 
O=c1ccn([C@@H]2O[C@H](CO)[C@@H](O)[C@H]2O)c(=O)[nH]1 [uridine] | -1.71 ± 0.1 °C |  | 
